Measurements published in publication PMC11249646, “Small-Molecule Disruptors of the Interaction between Calcium- and Integrin-Binding Protein 1 and Integrin αIIbβ3 as Novel Antiplatelet Agents” (ACS Pharmacology & Translational Science, 2024).
Read-outs that look alike come from different tables or passages of the source.

Biological target: T1, CIB1 and αIIb interaction (CIB1-GST : F-αIIb peptide) (Homo sapiens, UniProt Q99828)
T1 construct: made in house; host or cells: BL-21 plus RIL cells (E. coli)
T1 sequence (Q99828 1-191): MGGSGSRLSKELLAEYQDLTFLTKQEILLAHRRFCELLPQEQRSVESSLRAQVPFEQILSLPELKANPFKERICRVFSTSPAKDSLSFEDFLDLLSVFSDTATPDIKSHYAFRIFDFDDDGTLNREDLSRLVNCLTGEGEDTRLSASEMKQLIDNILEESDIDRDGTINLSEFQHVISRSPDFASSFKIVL
Assay: FP assay, 1536-well qHTS format (primary and confirmatory screen)
Format: binding
Details: for Efficacy (%): negative = inhibition; for IC50: read-out: IC50; for Curve Class: negative sign = inhibitory curve

[1] = qHTS primary screen hits, Table S2
[2] = qHTS primary screen hits, Table S2, several classes where COUNT > 1
[3] = qHTS primary screen of LOPAC/NPACT libraries

Structure (SMILES)	Efficacy (%) [1] [%]	IC50 [1] [µM]	Curve Class [2]	Efficacy (%) [3] [%]	Curve Class [3]	IC50 [3] [µM]	also measured
COCCCOc1ccnc(C[S+]([O-])c2nc3ccccc3[n-]2)c1C.[Na+] (centres unmarked) [NCGC00159518-05]	-54	42.2	–	–	–	–	–
O=C(CS)Nc1ccccc1 [NCGC00160366-02]	-44	89.1	–	–	–	–	Curve Class [1]: -3
CC[PH](CC)(CC)[Au][S][C@@H]1O[C@H](COC(C)=O)[C@@H](OC(C)=O)[C@H](OC(C)=O)[C@H]1OC(C)=O [NCGC00160391-05]	–	–	–	–	–	–	Efficacy (%) (qHTS FP screen hits, Table S2): -30%; IC50 (qHTS FP screen hits, Table S2): 17.1 µM
CN1CCN(CCC(=O)N2c3ccccc3Sc3ccc(C(F)(F)F)cc32)CC1.Cl [NCGC00160483-02]	-60	56.2	-2.4	–	–	–	–
COC1=C(OC)C(=O)C(CCCCCCCCCCO)=C(C)C1=O [NCGC00160514-02]	-26	50.1	-2.4	–	–	–	–
O=C(Nc1ccc(Oc2ccc(Cl)cc2)c(Cl)c1)c1cc(I)cc(I)c1O [NCGC00160556-02]	-27	89.1	–	–	–	–	Curve Class [1]: -2.4
CSc1ccc(/C=C2/C(C)=C(CC(=O)O)c3cc(F)ccc32)cc1 [NCGC00161601-02]	-32	79.4	-2.4	–	–	–	–
Cc1ccc(S(=O)(=O)Nc2cc(S(=O)(=O)c3ccc(C)cc3)c(O)c3cccnc23)cc1 [NCGC00161699-01]	-29	50.1	-2.4	–	–	–	–
O=S(=O)(Nc1cc(O)cc2cccnc12)c1ccc(Cl)s1 [NCGC00161701-01]	-37	50.1	-2.4	–	–	–	–
COc1cc(NS(=O)(=O)c2ccc([N+](=O)[O-])cc2)c2ncccc2c1 [NCGC00161705-01]	-40	56.2	-2.4	–	–	–	–
COc1cc(NS(=O)(=O)c2cccc([N+](=O)[O-])c2)c2ncccc2c1 [NCGC00161706-01]	-35	56.2	-2.4	–	–	–	–
O=C(O)c1ccc(S(=O)(=O)N[C@@H](Cc2ccc(O)cc2)C(=O)O)cc1 [NCGC00161808-01]	-21	44.7	-2.4	–	–	–	–
CN(C)CC/C=C1/c2ccccc2Sc2cc(Cl)ccc21.Cl [NCGC00162079-02]	–	–	–	-13	-2.4	70.8	–
Cc1cc(Cn2cnc3c2C[C@@H](C(=O)O)N(C(=O)C(c2ccccc2)c2ccccc2)C3)ccc1N [NCGC00162092-02]	–	–	–	-10	-1.4	10	–
C=CCc1ccccc1OCC(O)CN[C@]1(C)CCC[C@H](C(C)(C)NC(=O)CBr)C1 (some centres unmarked) [NCGC00162095-02]	–	–	–	-35	-2.4	56.2	–
NC(=O)c1cc[n+](CC2=C(C(=O)O)N3C(=O)[C@@H](NC(=O)[C@@H](c4ccccc4)S(=O)(=O)[O-])[C@H]3SC2)cc1 [NCGC00162106-03]	–	–	–	-20	-2.2	50.1	–
CO/N=C(\C(=O)N[C@@H]1C(=O)N2C(C(=O)O)=C(CSc3nc(=O)c(O)nn3C)CSC12)c1csc(N)n1 (some centres unmarked) [NCGC00162111-02]	–	–	–	-18	-1.2	20	–
CC(C)c1cc(F)cc2c1C[C@](CCN(C)CCCc1nc3ccccc3[nH]1)(OC(=O)C1CC1)CC2 [NCGC00162214-02]	–	–	–	-30	-2.2	56.2	–
OCC1O[C@H]([S-])[C@H](O)[C@@H](O)[C@@H]1O.[Au+] (some centres unmarked) [NCGC00162223-02]	–	–	–	-26	-3	89.1	–
CCCCCN(CCCCC)C(=O)C(CCC(=O)O)NC(=O)c1ccc(Cl)c(Cl)c1 (centres unmarked) [NCGC00162232-03]	–	–	–	-19	-2.2	44.7	–
CCCCCCCCOc1ccccc1C(=O)Nc1ccc(C(=O)OCC[N+](C)(CC)CC)cc1.[Br-] [NCGC00163507-03]	–	–	–	–	–	–	Efficacy (%) (qHTS FP screen hits, Table S2): -39%; Curve Class (qHTS FP screen hits, Table S2, one class per curve where COUNT > 1): -1.2; IC50 (qHTS FP screen hits, Table S2): 22.4 µM
CS(=O)(=O)c1ccc(C(=O)C2C(=O)CCCC2=O)c([N+](=O)[O-])c1 [NCGC00163843-03]	-30	126	-2.4	–	–	–	–
C[C@]12CC[C@@H]3c4ccc(OC(=O)N(CCCl)CCCl)cc4CC[C@H]3[C@@H]1CC[C@@H]2O [NCGC00164581-02]	-41	50.1	-2.2	–	–	–	–
Cl.Nc1ccc2cc3ccc(N)cc3nc2c1.Nc1ccc2cc3ccc(N)cc3nc2c1.O=S(=O)(O)O [NCGC00166245-04]	-130	2.2	-1.1	–	–	–	–
CC[C@]1(O)CC[C@H]2[C@@H]3CCC4=CCCC[C@@H]4[C@H]3CC[C@@]21C [NCGC00167514-02]	-100	31.6	-1.1	–	–	–	–
COc1ccc2[nH]c([S+]([O-])Cc3ncc(C)c(OC)c3C)nc2n1 (centres unmarked) [NCGC00167521-02]	–	–	–	–	–	–	Efficacy (%) (qHTS FP screen hits, Table S2): -34%; IC50 (qHTS FP screen hits, Table S2): 47.4 µM
CN1CCN(c2ccc(Nc3c4ccccc4nc4ccccc34)cc2)CC1.O=C(O)C(F)(F)F [NCGC00167823-03]	-25	56.2	-2.4	–	–	–	–
CCN(CC)C(=O)[C@@H]1C=C2c3cccc4[nH]cc(c34)C[C@H]2N(C)C1 [NCGC00168265-02]	-141	63.1	–	–	–	–	Curve Class [1]: -1.1

More lines, main results first:

Efficacy (%) [1] [%]	IC50 [1] [µM]	Curve Class [2]	Efficacy (%) [3] [%]	Curve Class [3]	IC50 [3] [µM]	Structure (SMILES)	also measured
–	–	–	-29	-1.4	15.8	CC(C)c1ccc2c(c1)c(SC(C)(C)C)c(CC(C)(C)C(=O)O)n2Cc1ccc(Cl)cc1 [NCGC00162249-03]	–
–	–	–	-10	-1.4	8.9	CCn1cc(C(=O)O)c(=O)c2ccc(C)nc21 [NCGC00162271-02]	–
–	–	–	-26	-2.2	56.2	N.N.N.N.N.N.N.N.N.N.N.N.N.N.O.O.[Ru].[Ru].[Ru] [NCGC00162333-02]	–
–	–	–	-28	-2.4	56.2	CN(C)CC1CCn2c(c(C3=C(c4cn(C)c5ccccc45)C(=O)NC3=O)c3ccccc32)C1.Cl (centres unmarked) [NCGC00163696-04]	–
-38	50.1	–	–	–	–	CCCCCCCCCCCC[N+](C)(C)Cc1ccccc1.[Cl-] [NCGC00164245-03]	Curve Class [1]: -2.2
-50	44.7	–	–	–	–	Cc1ccc(O)c2ncccc12 [NCGC00164506-02]	Curve Class [1]: -2.2
-28	50.1	-2.4	–	–	–	CC(C)=CCC1C(=O)N(c2ccccc2)N(c2ccccc2)C1=O [NCGC00164582-02]	–
–	–	–	-19	-1.4	5.6	COc1cc(/C=C(\C#N)C(=O)Nc2nnc(C(F)(F)F)s2)ccc1OCc1ccc(C(F)(F)F)cc1C(F)(F)F [NCGC00165952-02]	–
-35	56.2	-2.2	–	–	–	OCCCc1ccccc1 [NCGC00165987-03]	–
-21	44.7	–	–	–	–	O=C(O)c1ccccn1 [NCGC00165993-02]	Curve Class [1]: -2.4
-45	89.1	-3	–	–	–	CCCCCCCCCCCCCCCC[N+](C)(C)CC.[Br-] [NCGC00166120-02]	–
-26	79.4	-2.4	–	–	–	Nc1ccncc1N [NCGC00167560-02]	–
-57	89.1	-3	–	–	–	CCN(CC)CCCN(c1ccccc1)C1Cc2ccccc2C1.Cl [NCGC00167576-02]	–
–	–	–	-11	-1.4	3.2	COc1cc(SC)ccc1C(=O)N1CCC(Cc2ccccc2)CC1 [NCGC00167816-02]	–
-42	7.7	–	–	–	–	COc1cccc2c1C(=O)c1c(O)c3c(c(O)c1C2=O)C[C@@](O)(C(=O)CO)C[C@@H]3O[C@H]1C[C@H](N)[C@H](O[C@@H]2CCCCO2)[C@H](C)O1 [NCGC00167982-02]	–
-28	50.1	–	–	–	–	O=C(O)C1NCc2[nH]cnc2C1c1ccccc1 (centres unmarked) [NCGC00167998-01]	Curve Class [1]: -2.4
–	–	–	-27	-2.4	56.2	C=C1C(=O)O[C@H]2C3=C(C)CCC[C@]3(C)C(=O)C[C@@H]12 [NCGC00168931-02]	–
–	–	–	-30	-2.4	22.4	O=C1OCc2cc3cccc(O[C@@H]4O[C@H](CO)[C@@H](O)[C@H](O)[C@H]4O)c3c(O)c21 [NCGC00169010-02]	–
–	–	–	-26	-2.4	44.7	CC(C)=CCc1ccc(Oc2c(O)cc(C)cc2CO)c(C(=O)O)c1O [NCGC00169025-02]	–
–	–	–	-20	-1.4	22.4	C=C1C(=O)O[C@H]2[C@H]1[C@@H](OC(=O)C(C)CO)C[C@@]1(C)[C@H](O)CCC(=O)[C@H]21 (some centres unmarked) [NCGC00169369-02]	–
–	–	–	-27	-1.4	25.1	C=CC/C=C\C/C=C\CCCCCCCc1cccc(O)c1C(=O)O [NCGC00169660-02]	–
-82	28.2	–	–	–	–	CC1CCCC[C@H]2C(=O)C=C[C@H](O)[C@@H]2CC(=O)O1 (some centres unmarked) [NCGC00169882-02]	Curve Class [1]: -1.2
